Consider 4 compounds from patent publication US6096863A, “Self-assembling amphiphiles for construction of peptide secondary structures” (Regents of the University of Minnesota, priority 1996, dated 2000).

Starred links: 1 amine or outer side, 2 acyl side, 3 side chain; linkers in the order of their positions; H or OH if unused. Non-standard residues stand in square brackets, D forms with d. Residues, ends and D or L forms follow the SMILES beside them. *: point of attachment. X2 = CCCCCCCCCCCCCCCCOC(=O)CC[C@H](N*)C(=O)OCCCCCCCCCCCCCCCC; X1 = CCCCCCCCCCCCCCOC(=O)CC[C@H](N*)C(=O)OCCCCCCCCCCCCCC; X3 = CCCCCCCCCCCCOC(=O)CC[C@H](N*)C(=O)OCCCCCCCCCCCC; Hyp = O=C(O)[C@@H]1C[C@@H](O)CN1; Suc = O=C(CCC(=O)[*:2])[*:1]

The nature of data set [1]: Surface pressure-area isotherms of monolayers at the air-water interface. It counts as physicochemical. Conditions: for limiting surface area (monolayer reaches maximum surface pressure and collapses): 22° C., pure water subphase. As to the method: All isotherms were obtained at 22° C. after spreading a peptide amphiphile solution in hexane-CHCl3 -methanol (5:4:1) over a pure water subphase. After 15 minutes, the monolayer was compressed laterally with constant speed for 10 mm/minute on a computerized KSV LB5000 Langmuir-Blodgett instrument and surface pressure detected using film balance with a platinum Wilhemy plate.

Data set [2] is described as follows: Circular dichroism spectroscopy. Conditions: 25° C., 0.5 mM in H2O, λ=225 nm. It counts as physicochemical. As to the method: Spectra were recorded on a JASCO J-710 spectropolarimeter using a thermostated 0.1 mm quartz cell. Thermal transition curves were obtained by recording the molar ellipticity ([θ]) in the range of 10-80° C. at λ=225 nm. The peptide and peptide-amphiphile concentrations were 0.5 mM in H2 O at 25° C.
(In general: CD spectra are sensitive to the conformation of chiral molecules.)

The next data set relates to melanoma cell. The following applies: cited from earlier work.

Regarding `CC(C)[C@H](NC(=O)CN)C(=O)N[C@@H](CCCCN)C(=O)NCC(=O)N[C@@H](CC(=O)O)C(=O)N[C@@H](CCCCN)C(=O)NCC(=O)N[C@@H](CC(N)=O)C(=O)N1CCC[C@H]1C(=O)NCC(=O)N[C@@H](Cc1c[nH]c2ccccc12)C(=O)N1CCC[C@H]1C(=O)NCC(=O)N[C@@H](C)C(=O)N1CCC[C@H]1C(N)=O` [[IV-H1]] (H-GVKGDKGNPGWPGAP-NH2), in data set [1], the “surface activity / formation of monolayers at the air-water interface” value is “not surface active”. In data set [2], the “CD spectrum, positive ellipticity (poly-Pro II / triple-helix-like structure)” value is given as “did not show any positive ellipticity”. In the data set with melanoma cell, the “melanoma cell adhesion and spreading” value is “promote melanoma cell adhesion and spreading”. In the case of `CCCCCCCCCCCCCCOC(=O)CC[C@H](NC(=O)CCC(=O)NCC(=O)N[C@H](C(=O)N[C@@H](CCCCN)C(=O)NCC(=O)N[C@@H](CC(=O)O)C(=O)N[C@@H](CCCCN)C(=O)NCC(=O)N[C@@H](CC(N)=O)C(=O)N1CCC[C@H]1C(=O)NCC(=O)N[C@@H](Cc1c[nH]c2ccccc12)C(=O)N1CCC[C@H]1C(=O)NCC(=O)N[C@@H](C)C(=O)N1CCC[C@H]1C(=O)NCC(=O)N1CCC[C@H]1C(=O)N1C[C@H](O)C[C@H]1C(=O)NCC(=O)N1CCC[C@H]1C(=O)N1C[C@H](O)C[C@H]1C(=O)NCC(=O)N1CCC[C@H]1C(=O)N1C[C@H](O)C[C@H]1C(=O)NCC(=O)N1CCC[C@H]1C(=O)N1C[C@H](O)C[C@H]1C(N)=O)C(C)C)C(=O)OCCCCCCCCCCCCCC` [(C14)2 -Glu-C2 -[IV-H1]-(Gly-Pro-Hyp)4] ({X1-Suc}-GVKGDKGNPGWPGAPGP[Hyp]GP[Hyp]GP[Hyp]GP[Hyp]-NH2), the “limiting surface area (monolayer reaches maximum surface pressure and collapses)” value in data set [1] was found to be 0.6 nm^2 /molecule. Still for that read-out and setting: as for `CCCCCCCCCCCCCCCCOC(=O)CC[C@H](NC(=O)CCC(=O)NCC(=O)N1CCC[C@H]1C(=O)N1C[C@H](O)C[C@H]1C(=O)NCC(=O)N1CCC[C@H]1C(=O)N1C[C@H](O)C[C@H]1C(=O)NCC(=O)N1CCC[C@H]1C(=O)N1C[C@H](O)C[C@H]1C(=O)NCC(=O)N1CCC[C@H]1C(=O)N1C[C@H](O)C[C@H]1C(=O)NCC(=O)N[C@H](C(=O)N[C@@H](CCCCN)C(=O)NCC(=O)N[C@@H](CC(=O)O)C(=O)N[C@@H](CCCCN)C(=O)NCC(=O)N[C@@H](CC(N)=O)C(=O)N1CCC[C@H]1C(=O)NCC(=O)N[C@@H](Cc1c[nH]c2ccccc12)C(=O)N1CCC[C@H]1C(=O)NCC(=O)N[C@@H](C)C(=O)N1CCC[C@H]1C(N)=O)C(C)C)C(=O)OCCCCCCCCCCCCCCCC` [(C16)2 -Glu-C2 -(Gly-Pro-Hyp)4 -[IV-H1]] ({X2-Suc}-GP[Hyp]GP[Hyp]GP[Hyp]GP[Hyp]GVKGDKGNPGWPGAP-NH2), the figure is 0.6 nm^2 /molecule. `CCCCCCCCCCCCOC(=O)CC[C@H](NC(=O)CCC(=O)NCC(=O)N[C@H](C(=O)N[C@@H](CCCCN)C(=O)NCC(=O)N[C@@H](CC(=O)O)C(=O)N[C@@H](CCCCN)C(=O)NCC(=O)N[C@@H](CC(N)=O)C(=O)N1CCC[C@H]1C(=O)NCC(=O)N[C@@H](Cc1c[nH]c2ccccc12)C(=O)N1CCC[C@H]1C(=O)NCC(=O)N[C@@H](C)C(=O)N1CCC[C@H]1C(N)=O)C(C)C)C(=O)OCCCCCCCCCCCC` [(C12)2 -Glu-C2-[IV-H1]] ({X3-Suc}-GVKGDKGNPGWPGAP-NH2): in data set [2], the “CD spectrum, positive ellipticity (poly-Pro II / triple-helix-like structure)” value was “no positive ellipticity”.
